The values below come from patent US20260217691A1, “FOXM1 INHIBITORS AND THEIR USE IN TREATING CANCERS” (THE BOARD OF TRUSTEES OF THE UNIVERSITY OF ILLINOIS, priority 2022, published 2026).

Entries after “also recorded” stand apart in the source; their conditions may differ.

For data set [1], the system named is KG-1, HL-60, K562, THP-1 cells. It counts as cell-based.
Data set [2] deals with T1, FOXM1 (Homo sapiens, UniProt Q08050).
T1 sequence (Q08050 1-763): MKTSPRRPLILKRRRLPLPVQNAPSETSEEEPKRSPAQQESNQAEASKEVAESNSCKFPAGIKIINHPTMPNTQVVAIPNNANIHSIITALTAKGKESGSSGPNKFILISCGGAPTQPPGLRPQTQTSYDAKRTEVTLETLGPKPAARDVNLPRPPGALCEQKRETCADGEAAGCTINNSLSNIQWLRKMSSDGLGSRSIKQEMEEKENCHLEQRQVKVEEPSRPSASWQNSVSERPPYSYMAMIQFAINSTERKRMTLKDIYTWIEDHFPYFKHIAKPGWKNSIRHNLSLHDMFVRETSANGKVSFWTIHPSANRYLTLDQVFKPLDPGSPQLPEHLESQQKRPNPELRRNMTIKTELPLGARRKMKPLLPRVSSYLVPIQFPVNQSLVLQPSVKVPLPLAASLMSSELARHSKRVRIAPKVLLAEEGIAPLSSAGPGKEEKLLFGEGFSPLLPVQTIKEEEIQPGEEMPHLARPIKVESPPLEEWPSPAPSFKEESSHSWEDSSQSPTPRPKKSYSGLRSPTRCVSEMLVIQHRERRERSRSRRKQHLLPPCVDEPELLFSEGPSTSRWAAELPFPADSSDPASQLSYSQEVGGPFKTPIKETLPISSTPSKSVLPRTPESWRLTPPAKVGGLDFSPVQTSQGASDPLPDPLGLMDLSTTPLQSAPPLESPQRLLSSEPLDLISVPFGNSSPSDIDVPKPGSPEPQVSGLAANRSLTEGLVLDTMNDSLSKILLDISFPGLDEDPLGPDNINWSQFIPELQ
In words: FOXM1 protein levels by immunoblotting in solid cancer cell lines. Conditions: ovarian cancer cells (ES-2, OVCAR-8).
Procedure: Cell culture: Human cell lines LNCaP and 22Rv1 (human prostate carcinoma), OVCAR8 and ES-2 (High-grade serous ovarian cancer, HGSOC), HCT-116 and HCT-FET (human colorectal carcinoma), HCC-1143 (triple negative breast cancer (TNBC), TAMR (Tamoxifen resistant MCF7) human breast cancer, were provided from various investigators. LNCaP and 22Rv1 cell lines were cultured in RPMI-1640 with 2 mM L-Glutamine (Gibco; Thermo Fisher Scientific, Waltham, MA, USA). HCC-1143 cell lines were cultured in Iscove's Modified Dulbecco Medium (IMDM) with 2 mM L-Glutamine (Gibco; Thermo Fisher Scientific). OVCAR-8, ES-2, HCT-116, and HCT-FET cell lines were cultured in Dulbecco's Modified Eagle Medium (DMEM) with 4.5 g/L glucose and 4 mM L-Glutamine (Gibco; Thermo Fisher Scientific). For all cell lines, the growth media was supplemented with 10% Foetal Bovine Serum (FBS), penicillin (100 U/mL), and 100 μg/mL streptomycin (Gibco; Thermo Fisher Scientific). TAMR cells were routinely cultured in DMEM/F12 medium without phenol red (Gibco; Thermo Fisher Scientific), containing 1% charcoal-striped FBS, 2.5 mM L-Glutamine (Thermo Fisher Scientific), 6 ng/mL insulin (Millipore Sigma) and 50 nM 4-hydroxytamoxifen (4-OHT; Millipore Sigma). All cell lines were grown and maintained at 37° C. in a humidified incubator with 5% CO2. Sub-confluent cultures (70-80%) were split 1:5 using 0.25% Trypsin/EDTA (Millipore Sigma).
Drug treatment of cultured cells: After harvesting, cells were counted in presence of Trypan Blue (Thermo Fisher Scientific) and seeded onto tissue culture plates to achieve ~50% confluency. The next day, treatment of cells was performed by aspirating the nonadherent cells and growth medium and replacing it with the fresh one containing selected concentrations of drugs. For Tamoxifen based studies, the nonadherent cells and growth media was aspirated and replaced with the DMEM supplemented with 4.5 g/L glucose and 4 mM L-Glutamine, 10% FBS, penicillin (100 U/mL), 100 μg/mL streptomycin, 10 nM estrogen, and selected concentrations of drugs. […] Post-treatment at selected times, the cells were harvested, washed with ice-cold PBS and used for protein or RNA purification as described below.
Protein immunoblotting: Total protein was extracted using ice-cold radio-immunoprecipitation assay (RIPA) buffer (Millipore Sigma) supplemented with Halt protease- and phosphatise-inhibitor cocktails (Fisher Scientific), 2 mM sodium orthovanadate (New England Biolabs, Inc., USA), and 5 mM sodium fluoride (Millipore Sigma) according to the manufacturer's protocol. Protein content in each sample was estimated using Bio-Rad Protein Assay (Bio-Rad, USA). Equal amounts of protein (20-30 μg) were separated on hand-cast SDS/PAGE (6-12%) mini-protein gels and transferred to 0.2 μm Immobilon-Psq polyvinylidene difluoride (PVDF) transfer membrane (Millipore Sigma). Membranes were blocked with 4% bovine serum albumin (BSA; Millipore Sigma) in TRIS-buffered saline (TBS) with 0.1% Tween-20 (TBS-T, Thermo Fisher Scientific) and probed overnight at 4° C. with the primary antibodies (FOXM1, Cell Signaling Technology (CST), Inc., USA; Cleaved Caspase-3, CST; β-actin, Thermo Fisher Scientific) diluted according to the manufacturer's protocol. […] After incubating membranes with the secondary antibodies, the membranes were then washed three times for 10 min each with TBST. Protein bands were developed using SuperSignal™ West Pico PLUS Chemiluminescent Substrate (Thermo Fisher Scientific) and detected using ChemiDoc Imaging System (Bio-Rad).

In data set [3] the target is T1, FOXM1. The arrangement: Total protein samples obtain from treated cells were analyzed for FOXM1 protein levels via immunoblotting; endogenous in cells. Conditions: solid cancer cell lines; cited from earlier work.
The target of data set [4] is T1, FOXM1. Nature of the data set: FOXM1 protein levels by immunoblotting in leukemia/AML cell lines. The format is cell-based. Set-up: Total protein samples obtain from treated cells were analyzed for FOXM1 protein levels via immunoblotting; endogenous in cells; host or cells: KG-1, HL-60, K562, THP-1 leukemia cell lines. The protocol: [a] Leukemia cells, KG-1, HL-60 and K562 were treated with increasing concentrations of STL427944 for 24 hrs. […] [b] THP1 and KG-1 cells were treated with indicated concentrations of venetoclax and STL427944 alone or in combination for 24 hrs. [c] KG-1 and K562 cells were treated with indicated concentrations of cytarabine and STL427944 alone or in combination for 24 hrs.
FIG. 8. STL427944 treatment of human leukemia cell lines suppress FOXM1 protein expression. (a) STL427944 treatment of human leukemia cell lines inhibit FOXM1 protein expression and sensitize cells to venetoclax treatment. […] (b) Stable shRNA-mediated FOXM1 knockdown prominently sensitizes KG-1 cells to cytotoxic effect of venetoclax. (c, d) combined treatment with STL427944 and venetoclax suppresses FOXM1 in KG-1 and THP-1 cells and synergistically promotes cytotoxic effects similarly to FOXM1 knockdown. Total protein was isolated from cells immediately after the treatment and analyzed via immunoblotting with FOXM1 antibodies). Apoptosis induction was estimated based on caspase-3 cleavage.
FIGS. 9A and 9B: Novel FOXM1 inhibitor STL001 sensitizes Leukemia cells to chemotherapy agents. [a] Structural formula of novel FOXM1 inhibitor STL001. [b] Leukemia cells, KG-1, HL-60, and K562 were treated with increasing concentrations of STL001 for 24 hrs. […] [c] KG-1 cells were treated with indicated concentrations of Laptomycin B, Chloroquine, and STL001 for 24 hrs. […] [d] KG-1, HL-60, and K562 cells were treated with indicated concentrations of venetoclax and STL001 alone or in combination for 24 hrs. [e] KG-1, HL-60, and K562 cells were treated with indicated concentrations of cytarabine and STL alone or in combination for 24 hrs.
FIGS. 13A-13H STL001 is a novel FOXM1 inhibitor that sensitizes leukemia cells to standard cytotoxic and bcl2 inhibitor therapies. FIG. 13A AML cell line KG-1 treated with precursor compound STL427944. FIG. 3B AML cell lines KG-1, HL-60, and K562 were treated with increasing concentrations of STL001 for 24 h. Total protein samples obtained from treated cells were analyzed for FOXM1 protein levels using immunoblotting; β-actin was used as the internal loading control. FIG. 13C KG-1, HL-60, and K562 cells were treated with indicated concentrations of venetoclax and STL001 alone or in combination for 24 h. FIG. 13D KG-1, HL-60, and K562 cells were treated with indicated concentrations of cytarabine and STL001 alone or in combination for 24 h. […] FIG. 13E KG-1 cells were treated with indicated concentrations of Leptomycin B, Chloroquine, and STL001 for 24 h. Total protein samples obtained from treated cells were analyzed for FOXM1 protein levels via immunoblotting; β-actin was used as an internal loading control. FIG. 13F KG-1 cell lines with shRNA knockdown of FOXM1 were treated with venetoclax and STL001 and compared to parental cells. FIG. 13G Real-time PCR-based expression profiling for canonical FOXM1 target genes was performed on primary AML mononuclear cells (n=5) treated ex vivo with STL001 5 μM for 24 h. Mean and standard error of the delta Ct for DMSO or treatment group are plotted for each gene. P-value is estimated by two-tailed paired t-test. Asterisks denote P<0.05. FIG. 13H Treatment of peripheral blood mononuclear cells with STL001 for 24 h followed by immunohistochemistry for FOXM1. Slides were scanned on an Aperio AT2 brightfield scanner and images were analyzed using HALO 2.0 software. Hematoxylin counterstain was used to segment nuclei within the ROIs and to establish an accurate cell count. Percent cells with nuclear FOXM1 expression compared between DMSO and STL001 treated cells. P-value is based on one-tailed paired t-test.

The target in data set [5] is T1, FOXM1. Set-up: Total protein samples obtain from treated cells were analyzed for FOXM1 protein levels via immunoblotting; endogenous in cells; host or cells: KG-1, HL-60, K562, THP-1 leukemia cell lines. Conditions: cited from earlier work.

`O=C(Oc1cccc(/C=N/Nc2nc(Nc3ccccc3)nc(N3CCOCC3)n2)c1)c1ccco1` [STL427944]: in data set [1] (KG-1/THP-1 cells), the “apoptosis (caspase-3 cleavage) in combination with venetoclax” value is listed as “synergetic induction of apoptosis”. Moreover, the “efficiency of sensitization to venetoclax treatment” value in data set [1] (KG-1 cells, versus shRNA FOXM1 knockdown) is reported as “comparable to effects caused by shRNA-mediated FOXM1 knockdown”. In data set [1] (THP1, KG-1, K562 cells, 24 hrs), the “effect on cytotoxicity of chemotherapeutic drugs (venetoclax, cytarabine)” value was “enhances the cytotoxic effect of conventional chemotherapeutic drugs”. The “efficacy in knocking down FOXM1 expression” value in data set [2] is “lesser efficacy as compared to STL001”. For the same molecule, the “concentrations showing modest FOXM1 suppression” value in data set [3] was 25 to 50 µM. Besides, the “concentration showing modest FOXM1 inhibition” value in data set [4] (AML cell line KG-1) is 25 µM. In addition, the “Potency in AML” value in data set [4] (estimated) is on record as “uM range”. Moreover, the FOXM1 protein levels entry in data set [4] (leukemia cell lines, increasing concentrations, 24 h) is recorded as “dose-dependent suppression of FOXM1 protein levels; also recorded: efficiently reduces FOXM1 protein levels”. Besides, the “sensitivity of treated human cancer cells to platinum-based agents, 5-fluorouracil, taxanes” value in data set [5] (human cancer cells) is listed as “increased sensitivity to cytotoxic effects of conventional chemotherapeutic treatments”. Further, the “effect on FOXM1” value in data set [5] (relocalization of nuclear FOXM1 to cytoplasm, degradation by autophagosomes) is “selectively suppresses FOXM1”.
